Assay results as given in US20080206198A1, “Compounds and methods for pharmico-gene therapy of epithelial sodium channel associated disorders” (priority 2003, published 2008).
Where “and” joins values, the source holds several entries; their conditions need not be identical. Equal entries are not always repeated. Peptide text beside a SMILES is read from it. * marks the point of attachment. Cbz = O=C(OCc1ccccc1)*

Key:
mouse lung [1] = test: AV.LacZ gene transfer to mouse lung with Z-LLL (X-gal morphometry); format: in vivo
Method: In vivo studies in mice. Animal studies were performed in accordance with the institutional guidelines of the University of Iowa. To determine the effect of the proteasome inhibitor on AAV mediated gene transfer in mouse lung, 6 week-old BALB/c mice were lightly anesthetized using a methoxyflurane chamber. AV.LacZ (5×10^10 particles) was administered alone or with 400 μM Z-LLL in a 10 μl instillation by nasal aspiration as described by Walters et al. (2000). To prevent unforeseen toxicity of DMSO solvent, the proteasome inhibitor Z-LLL was dissolved in ethanol as a 40 mM stock solution and was included in the viral inoculum at 1% final concentration. Viral infection controls in the absence of Z-LLL also contained a 1% final concentration of ethanol. […] The trachea was incubated and instilled at 10 cm of water pressure with the following solutions in order: PBS, 0.5% glutaraldehyde, 1 mM MgCl2/PBS, and finally X-gal staining reagent for an overnight incubation at room temperature. The X-gal stained mouse lungs were then post fixed in 10% neutral buffered formalin for 48 hours at room temperature and cryopreserved in serial 10%, 20% and 30% sucrose/PBS solutions. Lungs (N=3 for each condition) were embedded in OCT (optimal cutting temperature; Baxter, Warrendale, Pa.) and 15 μm serially sections were analyzed for gene transfer by calculating the percentage of positive cells in the airway epithelium. The diameter of the airway was recorded for classification (>360 μm, 260-350 μm, 160-250 μm, <150 μm) of results following morphometric analysis. Greater than 150 airway cross-sections were quantified for each experimental condition.

mouse lung [2] = test: AV2.RSVlucCap5 nasal aspiration in mice with Z-LLL and/or doxorubicin; format: in vivo; settings: 200 μM
Method: To determine in vivo transduction efficiency of AV2.RSVlucCap5, mice were infected with 6×10^10 particles of AV2.RSVlucCap5 by nasal aspiration alone (control) or in combination with 200 μM Z-LLL, 200 μM doxorubicin or 200 μM Z-LLL and 200 μM doxorubicin (12 mice per group). Co-administration of Z-LLL induced whole lung luciferase expression 17.2- and 2.1-fold at 14 (2 weeks) and 42 (6 weeks) days post-infection, respectively.

mouse lung [3] = test: Intranasal AAV2-Luc with anthracyclines in Balb/c mice (lung luciferase); format: in vivo; settings: 10% HDE intranasal, day 7
Excerpt: Animals were followed for seven days post dose.
The dose of modulator was based on the Human Dose Equivalent (HDE) and is summarized below in Table 4. For intranasal dose administration, the dose was held constant at 10% of the HDE.
On the day of sacrifice, the left lung was clamped off at the level of the extrapulmonary bronchi, removed and frozen on dry ice. The left lung was homogenized and processed for luciferase expression using Promega's luciferase assay system (Madison, Wis.). Luminescence was measured using the Berthold AutoLumat LB953 instrument. Samples were normalized for total protein using Pierce's Coomassie Plus Protein Assay Reagent (Rockford, Ill.).

ENaC = test: Amiloride-sensitive short-circuit current in polarized CF airway epithelia; format: cell-based, human; settings: data not shown
Method: Short-circuit current (Isc) measurement in polarized airway epithelia. Transepithelial short-circuit currents were measured using an epithelial voltage clamp and a self-contained Using chamber as described in Zabner et al. (1998). The basolateral side of the chamber was filled with Ringer's buffer solution containing 135 mM NaCl, 1.2 mM CaCl2, 2.4 mM KH2PO4, 0.2 mM K2HPO4, 1.2 mM MgCl2, and 5 mM HEPES, pH 7.4. The apical side of the chamber was filled with a low-chloride Ringer's containing 135 mM sodium gluconate, 1.2 mM CaCl2, 2.4 mM KH2PO4, 0.2 mM K2HPO4, 1.2 mM MgCl2, and 5 mM HEPES, pH 7.4. During the experiment, the chamber was maintained at 37° C. and aerated with 100% O2. Transepithelial voltage was clamped at zero, and the resulting Isc was measured and recorded following the sequential addition of the following channel antagonist and agonists: 1) 100 μM amiloride (apical), 2) 100 μM 4,4′-diisothiocyna-2,2′-disulfonic stilbene (DIDS) (apical), 3) 100 μM IBMX/10 μM forskolin (apical), 4) 100 μM bumetanide (basolateral). Voltage was referenced to the apical compartment. The series resistance of the Ringer's solution and transwell membrane was electrically compensated before starting experiments. All chemical agonists and antagonists were added to either the apical or the basolateral sides of the monolayer by direct injection and mixed by aerating the Ringer's solution. […]

γ-ENaC gene promoter = test: Methylation-sensitive PCR of the γ-ENaC promoter CpG island in A549 cells; format: cell-based, human; settings: A549 genomic DNA
Method: Analysis of γ-ENaC promoter CpG Methylation. The methylation status of a CpG island beginning at approximately −1.8 kb of the γ-ENaC promoter was analyzed using a previously described PCR method (Malik et al., 2001). Briefly, genomic DNA was isolated from A549 cells that had been treated with and without doxorubicin, and then digested overnight with Mbol, MboI/MspI, or Mbol/HpaII. PCR reactions were then performed using primers that flank the MspI/HpaII sites in this region. Primers: forward 5′-[…]-3′ (SEQ ID NO: 13); reverse 5′-[…]-3′ (SEQ ID NO: 14).

[4] = 400 μM Z-LLL intranasal, 150 days

| SMILES | airway cells transduced by AV.LacZ, average (mouse lung [1]; [4]) | airways cells in the smaller bronchioles (<150 mm) expressing β-galactosidase (mouse lung [1]; [4]) [%] | range of transgene expression in distal airways (mouse lung [1]; [4]) [%] | range of transgene expression in proximal airways (mouse lung [1]; [4]) [%] | transduction efficiency in larger bronchioles (>350 mm), mean % of the airway epithelium (mouse lung [1]; [4]) | transgene expression by X-gal staining (mouse lung [1]; 3 and 10 days post infection) | induction of whole lung luciferase expression (mouse lung [2]; 14 days (2 weeks) post-infection) [fold] | induction of whole lung luciferase expression (mouse lung [2]; 42 days (6 weeks) post-infection) [fold] | luciferase expression, Average (mouse lung [3]; both sexes) | luciferase expression, Average (mouse lung [3]; female) | luciferase expression, Average (mouse lung [3]; male) | inhibition of ENaC Isc by the single compound (ENaC) | CpG methylation of the γ-ENaC promoter (protection from HpaII digestion) (γ-ENaC gene promoter) |
| --- | --- | --- | --- | --- | --- | --- | --- | --- | --- | --- | --- | --- | --- |
| CC(C)C[C@@H](C=O)NC(=O)[C@H](CC(C)C)NC(=O)[C@H](CC(C)C)NC(=O)OCc1ccccc1 [Z-LLL, N-carbobenzoxyl-L-leucinyl-L-leucinyl-L-leucinal] (Cbz-Leu-Leu-Leu-aldehyde) | about 5.88% | 1.37±0.41 | 0 to 4 | 5 to 18 | 10.36±1.63% and 10.36+/−1.63% | no detectable transgene expression | 17.2 | 2.1 |  |  |  |  |  |
| COc1cccc2c1C(=O)c1c(O)c3c(c(O)c1C2=O)C[C@@](O)(C(=O)CO)C[C@@H]3O[C@H]1C[C@H](N)[C@H](O)[C@H](C)O1 [doxorubicin] |  |  |  |  |  |  |  |  | 1.77E+06 | 5.44E+05 | *4.21E+06 | equivalent inhibition of ENaC Isc as seen with combined Dox/LLnL | significant Dox-dependent protection from HpaII digestion |
